Assay results reported in patent US11591336B2 (Relay Therapeutics, Inc., priority 2017, dated 2023).
Where a name gives a salt, the structure may show the parent alone.

Each molecule was assayed against SHP2 (Homo sapiens (Human), UniProt Q06124) (assay: SHP2 Allosteric Inhibition Assay (DiFMUP prompt fluorescence)). Conditions: 0.25 nM SHP2 activated with 0.5 μM peptide IRS1_pY1172(dPEG8)pY1222; substrate DiFMUP 100 μM; 25° C.
Type: biochemical

Structure (SMILES)	IC50
C[C@@H]1OCC2(CCN(c3cnc4c(N5CCCc6nc(C#N)ccc65)n[nH]c4n3)CC2)[C@@H]1N [Compound 248]	< 1000 nM
C[C@@H]1OCC2(CCN(c3cnc4c(N5CCC(C(F)F)c6ccccc65)n[nH]c4n3)CC2)[C@@H]1N (some centres unmarked) [Compound 250]	< 1000 nM
C[C@@H]1OCC2(CCN(c3cnc4c(N5CCCc6nc(-n7cccn7)ccc65)n[nH]c4n3)CC2)[C@@H]1N [Compound 252]	< 1000 nM
C[C@@H]1OCC2(CCN(c3cnc4c(N5CCCc6nc(-c7cc[nH]n7)ccc65)n[nH]c4n3)CC2)[C@@H]1N [Compound 254, (3S,4S)-8-(3-(6-(1H-pyrazol-3-yl)-3,4-dihydro-1,5-naphthyridin-1(2H)-yl)-1H-pyrazolo[3,4-b]pyrazin-6-yl)-3-methyl-2-oxa-8-azaspiro[4.5]decan-4-amine]	< 1000 nM
C[C@@H]1OCC2(CCN(c3cnc4c(N5CCCc6nc(N7CCNCC7)ccc65)n[nH]c4n3)CC2)[C@@H]1N [Compound 256, (3S,4S)-3-methyl-8-{3-[6-(piperazin-1-yl)-1,2,3,4-tetrahydro-1,5-naphthyridin-1-yl]-1H-pyrazolo[3,4-b]pyrazin-6-yl}-2-oxa-8-azaspiro[4.5]decan-4-amine dihydrochloride]	< 1000 nM
C[C@@H]1OCC2(CCN(c3cnc4c(N5CCCc6nc(-c7cn[nH]c7)ccc65)n[nH]c4n3)CC2)[C@@H]1N [Compound 259]	< 1000 nM
C[C@@H]1OCC2(CCN(c3cnc4c(N5CCCc6nc(N7CC[C@H](O)C7)ccc65)n[nH]c4n3)CC2)[C@@H]1N [Compound 261, (3S)-1-(5-{6-[(3S,4S)-4-amino-3-methyl-2-oxa-8-azaspiro[4.5]decan-8-yl]-1H-pyrazolo[3,4-b]pyrazin-3-yl}-5,6,7,8-tetrahydro-1,5-naphthyridin-2-yl)pyrrolidin-3-ol]	< 1000 nM
C[C@@H]1CCN(c2n[nH]c3nc(N4CCC5(CC4)CO[C@@H](C)[C@H]5N)cnc23)c2ccc(-c3cnn(C)c3)nc21 [Compound 266, (3S,4S)-3-methyl-8-{3-[(4R)-4-methyl-6-(1-methyl-1H-pyrazol-4-yl)-1,2,3,4-tetrahydro-1,5-naphthyridin-1-yl]-1H-pyrazolo[3,4-b]pyrazin-6-yl}-2-oxa-8-azaspiro[4.5]decan-4-amine]	< 1000 nM
C[C@@H]1OCC2(CCN(c3cnc4c(N5CCc6ccccc6C5)n[nH]c4n3)CC2)[C@@H]1N [Compound 268]	< 1000 nM
C[C@@H]1OCC2(CCN(c3cnc4c(N5CCOc6ccccc6C5)n[nH]c4n3)CC2)[C@@H]1N [Compound 269]	< 1000 nM
C[C@@H]1OCC2(CCN(c3cnc4c(N5CCc6ccncc6C5)n[nH]c4n3)CC2)[C@@H]1N [Compound 272]	< 1000 nM
C[C@@H]1OCC2(CCN(c3cnc4c(N5CCc6cc(C#N)ccc6C5)n[nH]c4n3)CC2)[C@@H]1N [Compound 273]	< 1000 nM
C[C@@H]1OCC2(CCN(c3cnc4c(N5CCc6c(C#N)cccc6C5)n[nH]c4n3)CC2)[C@@H]1N [Compound 274]	< 1000 nM
C[C@@H]1CCN(c2n[nH]c3nc(N4CCC5(CC4)CO[C@@H](C)[C@H]5N)cnc23)c2cccc(-c3cnn(C)c3)c21 [Compound 277]	< 1000 nM
C[C@@H]1OCC2(CCN(c3cnc4c(N5CCCc6nc(-n7cncn7)ccc65)n[nH]c4n3)CC2)[C@@H]1N [Compound 279]	< 1000 nM
C[C@@H]1OCC2(CCN(c3cnc4c(N5CCCc6nc(-c7ccn(C)n7)ccc65)n[nH]c4n3)CC2)[C@@H]1N [Compound 280, (3S,4S)-3-methyl-8-{3-[6-(1-methyl-1H-pyrazol-3-yl)-1,2,3,4-tetrahydro-1,5-naphthyridin-1-yl]-1H-pyrazolo[3,4-b]pyrazin-6-yl}-2-oxa-8-azaspiro[4.5]decan-4-amine]	< 1000 nM
C[C@@H]1OCC2(CCN(c3cnc4c(N5CCc6ccc(C#N)cc6C5)n[nH]c4n3)CC2)[C@@H]1N [Compound 286]	< 1000 nM
CNC(=O)c1ccc2c(c1)[C@@H](C)CCN2c1n[nH]c2nc(N3CCC4(CC3)CO[C@@H](C)[C@H]4N)cnc12 [Compound 288, (4S)-1-{6-[(3S,4S)-4-amino-3-methyl-2-oxa-8-azaspiro[4.5]decan-8-yl]-1H-pyrazolo[3,4-b]pyrazin-3-yl}-N,4-dimethyl-1,2,3,4-tetrahydroquinoline-6-carboxamide]	< 1000 nM
C[C@@H]1OCC2(CCN(c3cnc4c(N5CCCc6c5ccnc6-c5cn[nH]c5)n[nH]c4n3)CC2)[C@@H]1N [Compound 289]	< 1000 nM
C[C@@H]1OCC2(CCN(c3cnc4c(N5CCc6cnccc6C5)n[nH]c4n3)CC2)[C@@H]1N [Compound 291]	< 1000 nM
Cc1ccc2c(n1)CCCN2c1n[nH]c2nc(N3CCC4(CC3)CO[C@@H](C)[C@H]4N)cnc12 [Compound 292]	< 1000 nM
C[C@@H]1OCC2(CCN(c3cnc4c(N5CCCc6nc(-c7ncco7)ccc65)n[nH]c4n3)CC2)[C@@H]1N [Compound 295, (3S,4S)-3-methyl-8-(3-(6-(oxazol-2-yl)-3,4-dihydro-1,5-naphthyridin-1(2H)-yl)-1H-pyrazolo[3,4-b]pyrazin-6-yl)-2-oxa-8-azaspiro[4.5]decan-4-amine]	< 1000 nM
C[C@@H]1OCC2(CCN(c3cnc4c(N5CCNc6nc(-c7cnn(C)c7)ccc65)n[nH]c4n3)CC2)[C@@H]1N [Compound 296, (3S,4S)-3-methyl-8-(3-(6-(1-methyl-1H-pyrazol-4-yl)-3,4-dihydropyrido[2,3-b]pyrazin-1(2H)-yl)-1H-pyrazolo[3,4-b]pyrazin-6-yl)-2-oxa-8-azaspiro[4.5]decan-4-amine]	< 1000 nM

Other lines, results leading:

IC50	Structure (SMILES)
< 1000 nM	C[C@@H]1OCC2(CCN(c3cnc4c(N5CCCc6nc(-c7ncon7)ccc65)n[nH]c4n3)CC2)[C@@H]1N [Compound 246, (3S,4S)-8-(3-(6-(1,2,4-oxadiazol-3-yl)-3,4-dihydro-1,5-naphthyridin-1(2H)-yl)-1H-pyrazolo[3,4-b]pyrazin-6-yl)-3-methyl-2-oxa-8-azaspiro[4.5]decan-4-amine]
< 1000 nM	C[C@@H]1OCC2(CCN(c3cnc4c(N5CCNc6ncccc65)n[nH]c4n3)CC2)[C@@H]1N [Compound 247]
< 1000 nM	C[C@@H]1OCC2(CCN(c3cnc4c(N5CCCc6c(C7CCOCC7)cccc65)n[nH]c4n3)CC2)[C@@H]1N [Compound 251]
< 1000 nM	COC(=O)n1nc(N2CCCc3ncccc32)c2ncc(N3CCC4(CC3)CO[C@@H](C)[C@H]4N)nc21 [Compound 253, methyl 6-[(3S,4S)-4-amino-3-methyl-2-oxa-8-azaspiro[4.5]decan-8-yl]-3-(1,2,3,4-tetrahydro-1,5-naphthyridin-1-yl)-1H-pyrazolo[3,4-b]pyrazine-1-carboxylate hydrochloride]
< 1000 nM	C[C@@H]1OCC2(CCN(c3cnc4c(N5CCCc6nc(-c7ccnn7C)ccc65)n[nH]c4n3)CC2)[C@@H]1N [Compound 255, (3S,4S)-3-methyl-8-{3-[6-(1-methyl-1H-pyrazol-5-yl)-1,2,3,4-tetrahydro-1,5-naphthyridin-1-yl]-1H-pyrazolo[3,4-b]pyrazin-6-yl}-2-oxa-8-azaspiro[4.5]decan-4-amine hydrochloride]
< 1000 nM	C[C@@H]1OCC2(CCN(c3cnc4c(N5CCN(C(N)=O)c6ncccc65)n[nH]c4n3)CC2)[C@@H]1N [Compound 258, 1-{6-[(3S,4S)-4-amino-3-methyl-2-oxa-8-azaspiro[4.5]decan-8-yl]-1H-pyrazolo[3,4-b]pyrazin-3-yl}-1H,2H,3H,4H-pyrido[2,3-b]pyrazine-4-carboxamide hydrochloride]
< 1000 nM	C[C@@H]1OCC2(CCN(c3cnc4c(N5CCCc6nc(N7CC[C@@H](O)C7)ccc65)n[nH]c4n3)CC2)[C@@H]1N [Compound 260]
< 1000 nM	C[C@@H]1OCC2(CCN(c3cnc4c(N5CCc6ncccc6C5)n[nH]c4n3)CC2)[C@@H]1N [Compound 267]
< 1000 nM	C[C@@H]1OCC2(CCN(c3cnc4c(N5CCc6ccccc6C5=O)n[nH]c4n3)CC2)[C@@H]1N [Compound 270]
< 1000 nM	C[C@@H]1OCC2(CCN(c3cnc4c(N5CCc6cccnc6C5)n[nH]c4n3)CC2)[C@@H]1N [Compound 271]
< 1000 nM	C[C@@H]1OCC2(CCN(c3cnc4c(N5CC(=O)N(C)c6cc(C#N)ccc65)n[nH]c4n3)CC2)[C@@H]1N [Compound 275, 1-{6-[(3S,4S)-4-amino-3-methyl-2-oxa-8-azaspiro[4.5]decan-8-yl]-1H-pyrazolo[3,4-b]pyrazin-3-yl}-4-methyl-3-oxo-1,2,3,4-tetrahydroquinoxaline-6-carbonitrile]
< 1000 nM	C[C@@H]1OCC2(CCN(c3cnc4c(N5CCN(C)c6cnccc65)n[nH]c4n3)CC2)[C@@H]1N [Compound 276]
< 1000 nM	C[C@@H]1OCC2(CCN(c3cnc4c(N5CC[C@H](C)c6c(-c7cnn(C)c7)cccc65)n[nH]c4n3)CC2)[C@@H]1N [Compound 278]
< 1000 nM	C[C@@H]1OCC2(CCN(c3cnc4c(N5CCCc6c5cccc6S(C)(=O)=O)n[nH]c4n3)CC2)[C@@H]1N [Compound 281, (3S,4S)-8-[3-(5-methanesulfonyl-1,2,3,4-tetrahydroquinolin-1-yl)-1H-pyrazolo[3,4-b]pyrazin-6-yl]-3-methyl-2-oxa-8-azaspiro[4.5]decan-4-amine]
< 1000 nM	CNC(=O)c1ccc2c(n1)CCCN2c1n[nH]c2nc(N3CCC4(CC3)CO[C@@H](C)[C@H]4N)cnc12 [Compound 282, 5-(6-((3S,4S)-4-amino-3-methyl-2-oxa-8-azaspiro[4.5]decan-8-yl)-1H-pyrazolo[3,4-b]pyrazin-3-yl)-N-methyl-5,6,7,8-tetrahydro-1,5-naphthyridine-2-carboxamide]
< 1000 nM	C[C@@H]1OCC2(CCN(c3cnc4c(N5CCC(C(F)F)c6cc(C#N)ccc65)n[nH]c4n3)CC2)[C@@H]1N (some centres unmarked) [Compound 283]
< 1000 nM	C[C@@H]1OCC2(CCN(c3cnc4c(N5CC[C@H](C)c6nc(-c7cnn(C)c7)ccc65)n[nH]c4n3)CC2)[C@@H]1N [Compound 284, (3S,4S)-3-methyl-8-{3-[(4S)-4-methyl-6-(1-methyl-1H-pyrazol-4-yl)-1,2,3,4-tetrahydro-1,5-naphthyridin-1-yl]-1H-pyrazolo[3,4-b]pyrazin-6-yl}-2-oxa-8-azaspiro[4.5]decan-4-amine]
< 1000 nM	Cn1cc(-c2ccc3c(n2)CCCN3c2n[nH]c3nc(N4CCC5(CC4)COC[C@H]5N)cnc23)cn1 [Compound 290]
